Reference: patent US20230263809A1, “FOOD SUPPLEMENT FOR ALZHEIMER” (FOLIUM BIOSCIENCES EUROPE B.V., priority 2019, published 2023)

Columns and labels:
[1] = tested on: Amyloid-β deposits; conditions: in vivo; cited from earlier work
[2] = Side effects on uptake of phytosterols (compared with synthetic LXRα/β activators); type: in vivo; conditions: side effects caused normally by synthetic LXRα/β activators
[3] = tested on: cholesterol absorption; conditions: by competing with cholesterol absorption; cited from earlier work
[4] = tested on: neurological behaviours; experiment: Restoring neurological behaviours on uptake of phytosterols; type: in vivo; conditions: uptake of the phytosterol

| Compound | removal of the toxic clumps of Amyloid-β deposits in the brain [1] | side effects [2] | cholesterol lowering effect [3] | restore neurological behaviours [4] |
| --- | --- | --- | --- | --- |
| CCCCCc1cc(O)c2c(c1)OC(C)(C)[C@@H]1CCC(C)=C[C@@H]21 [THC, Δ^9-tetrahydrocannabidiol] | promote the removal of the toxic clumps of Amyloid-β deposits | – | – | – |
| C/C=C(\CC[C@@H](C)[C@H]1CC[C@H]2[C@@H]3CC=C4C[C@@H](O)CC[C@]4(C)[C@H]3CC[C@]12C)C(C)C [Fucosterol] | – | without registering any side effects | shows a cholesterol lowering effect | help restore neurological behaviours |
| C=CC(O)(CC[C@@H](C)[C@H]1CC[C@H]2[C@@H]3CC=C4C[C@@H](O)CC[C@]4(C)[C@H]3CC[C@]12C)C(C)C (stereo partly drawn) [24(S)-Saringosterol] | – | without registering any side effects | – | help restore neurological behaviours |
